# Results: ChEMBL document CHEMBL5465560, “Selectivity Literature for EUbOPEN Chemogenomic Library” (2024)
# Legend:
# [1] = target: T1, Mitogen-activated protein kinase kinase kinase 7 (Homo sapiens) (UniProt O43318); assay: Selectivity interaction (KinomeScan (DiscoverX)) EUB0000607a MAP3K7; conditions: at 10 µM
# T1 sequence (whole entry): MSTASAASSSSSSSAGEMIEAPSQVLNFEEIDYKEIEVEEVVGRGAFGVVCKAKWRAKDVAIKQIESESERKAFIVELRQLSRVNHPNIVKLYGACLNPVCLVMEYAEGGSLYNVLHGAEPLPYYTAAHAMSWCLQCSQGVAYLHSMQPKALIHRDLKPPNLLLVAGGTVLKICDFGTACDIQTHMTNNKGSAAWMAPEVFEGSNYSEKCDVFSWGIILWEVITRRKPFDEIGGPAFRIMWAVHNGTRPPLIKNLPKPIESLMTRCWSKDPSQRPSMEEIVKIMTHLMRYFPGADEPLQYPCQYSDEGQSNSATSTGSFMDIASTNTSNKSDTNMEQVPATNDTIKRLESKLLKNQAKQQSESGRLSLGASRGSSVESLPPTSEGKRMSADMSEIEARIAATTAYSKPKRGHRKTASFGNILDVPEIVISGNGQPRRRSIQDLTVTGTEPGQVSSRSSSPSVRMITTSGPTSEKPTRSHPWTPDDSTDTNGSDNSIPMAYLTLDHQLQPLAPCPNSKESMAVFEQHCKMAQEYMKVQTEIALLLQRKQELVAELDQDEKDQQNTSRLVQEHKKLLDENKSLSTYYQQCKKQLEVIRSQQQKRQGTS
# [2] = target: T2, Serine/threonine-protein kinase 3 (Homo sapiens) (UniProt Q13188); assay: Selectivity interaction (KinomeScan (DiscoverX)) EUB0001079a STK3; conditions: at 1 µM
# T2 sequence (whole entry): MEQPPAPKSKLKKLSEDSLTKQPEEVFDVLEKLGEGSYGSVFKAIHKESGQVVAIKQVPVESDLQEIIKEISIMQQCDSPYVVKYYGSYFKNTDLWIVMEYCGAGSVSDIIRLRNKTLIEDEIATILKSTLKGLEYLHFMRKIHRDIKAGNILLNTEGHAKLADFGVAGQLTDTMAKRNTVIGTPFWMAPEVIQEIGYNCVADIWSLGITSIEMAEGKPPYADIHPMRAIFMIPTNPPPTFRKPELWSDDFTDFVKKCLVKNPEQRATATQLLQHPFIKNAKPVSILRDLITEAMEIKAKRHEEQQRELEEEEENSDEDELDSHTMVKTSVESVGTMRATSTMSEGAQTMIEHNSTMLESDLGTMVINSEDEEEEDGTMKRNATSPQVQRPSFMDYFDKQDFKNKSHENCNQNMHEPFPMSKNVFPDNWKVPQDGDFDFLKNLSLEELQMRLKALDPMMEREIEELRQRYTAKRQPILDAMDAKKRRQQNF
# [3] = target: Leucine-rich repeat serine/threonine-protein kinase 2 (Homo sapiens, UniProt Q5S007); assay: (§1) Selectivity interaction (KinomeScan (DiscoverX)) EUB0000229b LRRK2; conditions: at 10 µM
# [4] = tested on: Leucine-rich repeat serine/threonine-protein kinase 2 (Homo sapiens), Q5S007 [G2019S]; assay: as §1; conditions: at 1 µM
# [5] = target: T3, Interleukin-1 receptor-associated kinase 3 (Homo sapiens) (UniProt Q9Y616); conditions: at 10 µM
# T3 sequence (whole entry): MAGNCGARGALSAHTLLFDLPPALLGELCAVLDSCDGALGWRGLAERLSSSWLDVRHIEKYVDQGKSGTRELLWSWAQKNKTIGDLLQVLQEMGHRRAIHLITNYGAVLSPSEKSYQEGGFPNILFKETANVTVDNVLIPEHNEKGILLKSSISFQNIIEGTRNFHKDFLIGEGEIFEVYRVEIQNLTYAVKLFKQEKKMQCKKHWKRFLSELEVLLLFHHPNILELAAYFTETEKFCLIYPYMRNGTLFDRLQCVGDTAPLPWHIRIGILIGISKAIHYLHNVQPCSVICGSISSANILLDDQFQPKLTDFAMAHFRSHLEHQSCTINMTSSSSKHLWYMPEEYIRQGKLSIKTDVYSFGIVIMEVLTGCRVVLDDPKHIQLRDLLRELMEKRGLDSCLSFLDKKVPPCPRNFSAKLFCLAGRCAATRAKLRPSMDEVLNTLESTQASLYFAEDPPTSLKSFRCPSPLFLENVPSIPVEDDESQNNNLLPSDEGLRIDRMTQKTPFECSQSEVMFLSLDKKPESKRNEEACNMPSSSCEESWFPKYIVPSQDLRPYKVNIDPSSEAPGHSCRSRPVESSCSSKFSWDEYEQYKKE
# [6] = target: T4, 3-phosphoinositide-dependent protein kinase 1 (Homo sapiens) (UniProt O15530); assay: Selectivity interaction (KinomeScan (DiscoverX)) EUB0001619a PDPK1; conditions: at 1 µM
# T4 sequence (whole entry): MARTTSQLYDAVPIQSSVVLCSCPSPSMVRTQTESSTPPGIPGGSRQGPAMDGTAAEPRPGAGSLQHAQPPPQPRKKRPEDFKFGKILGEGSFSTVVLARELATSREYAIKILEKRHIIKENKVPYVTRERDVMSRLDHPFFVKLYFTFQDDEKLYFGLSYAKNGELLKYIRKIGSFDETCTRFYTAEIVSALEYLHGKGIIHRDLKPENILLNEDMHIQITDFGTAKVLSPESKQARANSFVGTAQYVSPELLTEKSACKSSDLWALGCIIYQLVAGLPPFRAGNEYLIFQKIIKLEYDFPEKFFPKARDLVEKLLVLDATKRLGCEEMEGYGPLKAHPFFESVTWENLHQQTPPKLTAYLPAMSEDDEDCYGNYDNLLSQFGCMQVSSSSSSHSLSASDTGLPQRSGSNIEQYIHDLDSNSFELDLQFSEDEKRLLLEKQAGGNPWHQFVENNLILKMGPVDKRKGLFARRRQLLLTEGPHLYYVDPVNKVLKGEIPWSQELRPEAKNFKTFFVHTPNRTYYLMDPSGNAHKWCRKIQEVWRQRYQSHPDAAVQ
# [7] = tested on: Epidermal growth factor receptor (Homo sapiens), P00533 [UNDEFINED MUTATION]; assay: Selectivity interaction (KinomeScan (DiscoverX)) EUB0001619a EGFR; conditions: at 1 µM
# Chain of Epidermal growth factor receptor (Homo sapiens), P00533 [UNDEFINED MUTATION] (P00533 whole entry, looked up, change not shown): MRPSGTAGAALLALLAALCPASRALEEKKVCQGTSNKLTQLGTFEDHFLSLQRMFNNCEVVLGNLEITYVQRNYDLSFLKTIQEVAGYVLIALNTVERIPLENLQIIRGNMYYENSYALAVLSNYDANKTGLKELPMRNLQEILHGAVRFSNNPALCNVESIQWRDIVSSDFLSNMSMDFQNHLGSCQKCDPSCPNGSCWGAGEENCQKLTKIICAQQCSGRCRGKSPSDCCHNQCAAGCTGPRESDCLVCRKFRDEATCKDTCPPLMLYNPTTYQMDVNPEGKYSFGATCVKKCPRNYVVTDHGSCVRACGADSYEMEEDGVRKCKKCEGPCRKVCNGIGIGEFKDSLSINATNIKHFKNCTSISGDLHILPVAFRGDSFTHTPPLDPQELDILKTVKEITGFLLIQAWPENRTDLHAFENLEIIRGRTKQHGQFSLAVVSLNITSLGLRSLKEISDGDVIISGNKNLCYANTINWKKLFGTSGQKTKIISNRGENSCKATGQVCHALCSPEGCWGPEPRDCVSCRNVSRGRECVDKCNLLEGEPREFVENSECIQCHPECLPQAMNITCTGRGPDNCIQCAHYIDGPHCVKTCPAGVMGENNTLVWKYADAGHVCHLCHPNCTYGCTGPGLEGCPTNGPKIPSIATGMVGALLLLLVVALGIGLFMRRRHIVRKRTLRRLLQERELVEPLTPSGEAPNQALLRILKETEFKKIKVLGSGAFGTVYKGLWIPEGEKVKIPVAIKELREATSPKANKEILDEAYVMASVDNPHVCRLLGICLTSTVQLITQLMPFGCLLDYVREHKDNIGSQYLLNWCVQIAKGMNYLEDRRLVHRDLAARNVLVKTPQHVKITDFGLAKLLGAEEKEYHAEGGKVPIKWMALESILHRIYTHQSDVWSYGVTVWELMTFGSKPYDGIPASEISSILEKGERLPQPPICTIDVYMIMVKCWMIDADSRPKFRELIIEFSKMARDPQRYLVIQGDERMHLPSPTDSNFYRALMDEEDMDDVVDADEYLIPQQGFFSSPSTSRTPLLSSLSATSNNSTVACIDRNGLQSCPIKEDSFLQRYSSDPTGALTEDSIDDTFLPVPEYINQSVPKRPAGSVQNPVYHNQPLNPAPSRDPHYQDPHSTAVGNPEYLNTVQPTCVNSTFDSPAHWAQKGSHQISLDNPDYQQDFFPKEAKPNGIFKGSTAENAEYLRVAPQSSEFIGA
# Chain of Leucine-rich repeat serine/threonine-protein kinase 2 (Homo sapiens), Q5S007 [G2019S] (Q5S007 whole entry G2019S): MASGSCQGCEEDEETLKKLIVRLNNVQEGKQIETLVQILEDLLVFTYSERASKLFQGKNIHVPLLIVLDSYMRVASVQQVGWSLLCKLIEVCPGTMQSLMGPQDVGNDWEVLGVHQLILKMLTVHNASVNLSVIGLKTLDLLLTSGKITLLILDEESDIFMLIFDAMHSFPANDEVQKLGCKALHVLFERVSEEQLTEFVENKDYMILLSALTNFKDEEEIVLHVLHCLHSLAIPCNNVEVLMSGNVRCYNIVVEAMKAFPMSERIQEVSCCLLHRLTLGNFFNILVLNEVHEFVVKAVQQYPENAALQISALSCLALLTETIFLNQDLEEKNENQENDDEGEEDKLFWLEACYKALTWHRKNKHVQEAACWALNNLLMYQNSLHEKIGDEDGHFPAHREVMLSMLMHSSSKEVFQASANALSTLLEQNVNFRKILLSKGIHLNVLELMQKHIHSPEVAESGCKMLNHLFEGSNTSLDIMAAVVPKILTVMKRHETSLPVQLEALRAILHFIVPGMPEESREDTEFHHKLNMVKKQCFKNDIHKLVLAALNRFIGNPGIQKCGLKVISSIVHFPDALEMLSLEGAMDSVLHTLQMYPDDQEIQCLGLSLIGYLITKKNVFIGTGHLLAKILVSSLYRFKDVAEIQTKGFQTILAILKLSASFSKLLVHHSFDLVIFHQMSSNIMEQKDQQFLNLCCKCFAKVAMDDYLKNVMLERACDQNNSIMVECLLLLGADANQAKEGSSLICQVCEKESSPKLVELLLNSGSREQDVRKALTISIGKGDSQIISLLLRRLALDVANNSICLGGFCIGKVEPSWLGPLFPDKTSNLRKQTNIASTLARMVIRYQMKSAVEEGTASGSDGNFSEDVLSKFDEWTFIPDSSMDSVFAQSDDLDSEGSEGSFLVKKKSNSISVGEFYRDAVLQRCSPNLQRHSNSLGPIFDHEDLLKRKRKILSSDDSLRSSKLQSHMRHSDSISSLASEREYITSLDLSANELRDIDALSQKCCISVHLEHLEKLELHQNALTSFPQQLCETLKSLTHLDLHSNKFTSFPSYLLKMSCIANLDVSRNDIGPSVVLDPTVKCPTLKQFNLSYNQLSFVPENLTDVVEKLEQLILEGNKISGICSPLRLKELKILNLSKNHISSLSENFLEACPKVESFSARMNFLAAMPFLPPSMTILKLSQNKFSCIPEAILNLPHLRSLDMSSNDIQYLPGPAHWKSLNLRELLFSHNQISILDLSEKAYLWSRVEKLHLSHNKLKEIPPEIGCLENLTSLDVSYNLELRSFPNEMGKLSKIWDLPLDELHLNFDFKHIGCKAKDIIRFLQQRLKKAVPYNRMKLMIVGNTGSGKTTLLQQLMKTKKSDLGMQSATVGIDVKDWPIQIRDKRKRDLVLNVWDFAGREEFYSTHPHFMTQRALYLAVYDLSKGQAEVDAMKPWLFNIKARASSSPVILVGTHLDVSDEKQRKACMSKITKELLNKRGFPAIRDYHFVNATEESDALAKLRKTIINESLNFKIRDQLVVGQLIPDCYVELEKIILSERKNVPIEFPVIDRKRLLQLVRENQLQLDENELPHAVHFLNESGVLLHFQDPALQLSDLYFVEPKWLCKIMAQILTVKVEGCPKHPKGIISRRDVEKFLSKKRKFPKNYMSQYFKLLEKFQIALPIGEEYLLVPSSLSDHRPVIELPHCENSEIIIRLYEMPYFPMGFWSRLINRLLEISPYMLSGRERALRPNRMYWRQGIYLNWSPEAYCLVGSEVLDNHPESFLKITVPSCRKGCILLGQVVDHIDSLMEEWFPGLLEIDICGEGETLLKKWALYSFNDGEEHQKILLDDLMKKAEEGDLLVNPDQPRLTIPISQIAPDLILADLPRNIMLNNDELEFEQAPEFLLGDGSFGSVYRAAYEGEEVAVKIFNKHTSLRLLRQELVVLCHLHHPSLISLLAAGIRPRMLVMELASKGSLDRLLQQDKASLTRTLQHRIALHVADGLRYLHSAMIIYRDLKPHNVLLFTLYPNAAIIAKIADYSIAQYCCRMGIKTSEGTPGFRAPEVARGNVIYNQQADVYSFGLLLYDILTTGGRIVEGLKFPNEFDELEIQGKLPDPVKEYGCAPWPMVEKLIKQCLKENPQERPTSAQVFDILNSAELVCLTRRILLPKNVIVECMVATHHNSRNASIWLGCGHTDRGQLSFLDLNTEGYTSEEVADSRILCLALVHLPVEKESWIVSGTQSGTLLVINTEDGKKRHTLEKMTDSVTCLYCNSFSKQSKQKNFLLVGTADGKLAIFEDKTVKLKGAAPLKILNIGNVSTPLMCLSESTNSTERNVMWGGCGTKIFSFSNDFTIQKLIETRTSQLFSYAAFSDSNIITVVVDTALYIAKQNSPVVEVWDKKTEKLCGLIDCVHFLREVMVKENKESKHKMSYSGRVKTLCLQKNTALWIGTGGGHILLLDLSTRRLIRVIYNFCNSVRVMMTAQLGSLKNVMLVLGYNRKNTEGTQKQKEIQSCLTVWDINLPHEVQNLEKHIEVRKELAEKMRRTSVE
# Chain of Leucine-rich repeat serine/threonine-protein kinase 2 (Q5S007 whole entry): as the sequence (Q5S007 whole entry G2019S) above, with S2019G counted along it
compound,measurement,setting,value
CNC(=O)Nc1ccc(-c2nc(N3CC4CCC(C3)O4)c3cnn(C4CCC5(CC4)OCCO5)c3n2)cc1,% of control,[1],98%
Nc1cnc(N2CCc3cc(S(=O)(=O)Nc4c(F)cc(Cl)cc4F)cc(N4CCCC4=O)c32)nc1 [TP-020n],% of control,[2],96%
COc1cc(N(C)c2ccnc3ccc(C(F)(F)F)cc23)cc(OC)c1OC,% binding,[3],100%
same,% binding,[4],100%
Cc1cc([C@@H](C)Nc2ccccc2C(=O)O)c2nc(N3CCOCC3)cc(=O)n2c1 [AZD-6482],% of control,[5],58%
N#Cc1cccc(-c2c[nH]c3ncnc(N4CCOCC4)c23)c1,% of control,[6],100%
same,% of control,[7],83%
